Results as given in patent US10092551B2, “Spiro-thiazolones” (Hoffmann-La Roche Inc., priority 2014, dated 2018).
Counter-ions that a name gives are not always drawn.

target: human V1a receptor (Homo sapiens (Human), UniProt P37288); assay: human V1a receptor binding studies (3H-Vasopressin, SPA beads); settings: membranes of HEK293 cells transiently transfected with human V1a receptor, Ki by Cheng-Prussoff
Method: The human V1a receptor was cloned by RT-PCR from total human liver RNA. The coding sequence was subcloned in an expression vector after sequencing to confirm the identity of the amplified sequence. […] Cell membranes were prepared from HEK293 cells transiently transfected with the expression vector and grown in 20 liter fermenters with the following protocol.
50 g of cells are re-suspended in 30 ml freshly prepared ice cold Lysis buffer (50 mM HEPES, 1 mM EDTA, 10 mM MgCl2 adjusted to pH=7.4+complete cocktail of protease inhibitor (Roche Diagnostics)). Homogenized with Polytron for 1 min and sonicated on ice for 2×2 minutes at 80% intensity (Vibracell sonicator). The preparation is centrifuged 20 min at 500 g at 4° C., the pellet is discarded and the supernatant centrifuged 1 hour at 43,000 g at 4° C. (19,000 rpm). The pellet is re-suspended in 12.5 ml Lysis buffer+12.5 ml Sucrose 20% and homogenized using a Polytron for 1-2 min. The protein concentration is determined by the Bradford method and aliquots are stored at −80° C. until use. For binding studies 60 mg Yttrium silicate SPA beads (Amersham) are mixed with an aliquot of membrane in binding buffer (50 mM Tris, 120 mM NaCl, 5 mM KCl, 2 mM CaCl2, 10 mM MgCl2) for 15 minutes with mixing. 50 μl of bead/membrane mixture is then added to each well of a 96 well plate, followed by 50 μl of 4 nM 3H-Vasopressin (American Radiolabeled Chemicals). For total binding measurement 100 μl of binding buffer are added to the respective wells, for non-specific binding 100 μl of 8.4 mM cold vasopressin and for compound testing 100 μl of a serial dilution of each compound in 2% DMSO. The plate is incubated 1 h at room temperature, centrifuged 1 min at 1000 g and counted on a Packard Top-Count. Non-specific binding counts are subtracted from each well and data is normalized to the maximum specific binding set at 100%. To calculate an IC 50 the curve is fitted using a non-linear regression model (XLfit) and the Ki is calculated using the Cheng-Prussoff equation.

Chain of human V1a receptor (P37288 whole entry): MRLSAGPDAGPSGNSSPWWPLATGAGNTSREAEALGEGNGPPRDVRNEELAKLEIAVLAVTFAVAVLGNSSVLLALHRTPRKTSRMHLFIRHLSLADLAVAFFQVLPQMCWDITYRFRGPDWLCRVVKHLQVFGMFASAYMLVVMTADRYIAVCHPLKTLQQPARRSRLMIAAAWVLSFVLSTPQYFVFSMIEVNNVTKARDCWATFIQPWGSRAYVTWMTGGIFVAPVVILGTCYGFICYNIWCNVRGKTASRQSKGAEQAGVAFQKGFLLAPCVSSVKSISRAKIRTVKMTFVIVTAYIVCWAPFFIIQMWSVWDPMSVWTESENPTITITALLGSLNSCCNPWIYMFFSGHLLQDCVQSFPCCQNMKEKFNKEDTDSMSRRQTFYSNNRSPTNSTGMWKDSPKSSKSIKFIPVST

Row | Structure (SMILES) | pKi hV1a
1 | O=C1N=C(N2CCC3(CC2)OCc2ccccc23)SC1=C(CCl)CCl [Example 113, 5-(1,3-dichloropropan-2-ylidene)-2-(1′H,3H-spiro[2-benzofuran-1,4′-piperidin]-1′-yl)-1,3-thiazol-4(5H)-one] | 7.0
2 | CC(C)(C)[Si](C)(C)OC/C(=C1\SC(N2CCC3(CC2)OCc2ccccc23)=NC1=O)c1ccc(Cl)nc1 [Example 131, (5Z)-5-[2-{[tert-butyl(dimethyl)silyl]oxy}-1-(6-chloropyridin-3-yl)ethylidene]-2-(1′H,3H-spiro[2-benzofuran-1,4′-piperidin]-1′-yl)-1,3-thiazol-4(5H)-one] | 7.8
3 | C/C(=C1/SC(N2CCC3(CC2)OCc2ncccc23)=NC1=O)c1ccc(C)nc1 [Example 166, (5E/Z)-5-[1-(6-methylpyridin-3-yl)ethylidene]-2-(1′H,7H-spiro[furo[3,4-b]pyridine-5,4′-piperidin]-1′-yl)-1,3-thiazol-4(5H)-one] | 7.1
4 | O=C1N=C(N2CCC3(CC2)OCc2ccccc23)S/C1=C1/CCCCc2ccc(Cl)cc21 [Example 89, (5E/Z)-5-(3-chloro-6,7,8,9-tetrahydro-5H-benzo[7]annulen-5-ylidene)-2-(1′H,3H-spiro[2-benzofuran-1,4′-piperidin]-1′-yl)-1,3-thiazol-4(5H)-one] | 9.0
5 | C/C(=C1\SC(N2CCC3(CC2)OCc2ccccc23)=NC1=O)c1c(C)noc1C [Example 106, (5E)-5-[1-(3,5-dimethyl-1,2-oxazol-4-yl)ethylidene]-2-(1′H,3H-spiro[2-benzofuran-1,4′-piperidin]-1′-yl)-1,3-thiazol-4(5H)-one] | 7.3
6 | CC(C)(C)[Si](C)(C)OC/C(=C1\SC(N2CCC3(CC2)OC(=O)c2ccccc23)=NC1=O)c1ccccc1 [Example 141, 1′-[(5Z)-5-(2-{[tert-butyl(dimethyl)silyl]oxy}-1-phenylethylidene)-4-oxo-4,5-dihydro-1,3-thiazol-2-yl]-3H-spiro[2-benzofuran-1,4′-piperidin]-3-one] | 7.6
7 | C/C(CN)=C1\SC(N2CCC3(CC2)OCc2ccccc23)=NC1=O.Cl [Example 66, (5E)-5-(1-aminopropan-2-ylidene)-2-(1′H,3H-spiro[2-benzofuran-1,4′-piperidin]-1′-yl)-1,3-thiazol-4(5H)-one hydrochloride (1:1)] | 6.6
8 | O=C1N=C(N2CCC3(CC2)OCc2ccccc23)S/C1=C1/CCCOC1 [Example 76, (5E/Z)-5-(dihydro-2H-pyran-3(4H)-ylidene)-2-(1′H,3H-spiro[2-benzofuran-1,4′-piperidin]-1′-yl)-1,3-thiazol-4(5H)-one] | 7.8
9 | CC(C)(C)[Si](C)(C)OC/C(=C1/SC(N2CCC3(CC2)OC(=O)c2ccccc23)=NC1=O)c1ccc(Cl)nc1 [Example 144, 1′-{(5E)-5-[2-{[tert-butyl(dimethyl)silyl]oxy}-1-(6-chloropyridin-3-yl)ethylidene]-4-oxo-4,5-dihydro-1,3-thiazol-2-yl}-3H-spiro[2-benzofuran-1,4′-piperidin]-3-one] | 8.0
10 | C/C(=C1\SC(N2CCC3(CC2)OC(=O)c2ccccc23)=NC1=O)c1ccccc1 [Example 157, 1′-[(5E)-4-oxo-5-(1-phenylethylidene)-4,5-dihydro-1,3-thiazol-2-yl]-3H-spiro[2-benzofuran-1,4′-piperidin]-3-one] | 7.8
11 | C/C(CO[Si](C)(C)C(C)(C)C)=C1\SC(N2CCC3(CC2)OCc2ccccc23)=NC1=O [Example 58, (5E)-5-(1-{[tert-butyl(dimethyl)silyl]oxy}propan-2-ylidene)-2-(1′H,3H-spiro[2-benzofuran-1,4′-piperidin]-1′-yl)-1,3-thiazol-4(5H)-one] | 7.2
12 | COC1CCCC/C1=C1/SC(N2CCC3(CC2)OCc2ncccc23)=NC1=O (stereo not drawn) [Example 164, (5E/Z)-5-(2-methoxycyclohexylidene)-2-(1′H,7H-spiro[furo[3,4-b]pyridine-5,4′-piperidin]-1′-yl)-1,3-thiazol-4(5H)-one] | 6.9
13 | C/C(=C1/SC(N2CCC3(CC2)OC(=O)c2ccccc23)=NC1=O)c1ccc(Cl)nc1 [Example 137, 1′-{(5Z)-5-[1-(6-chloropyridin-3-yl)ethylidene]-4-oxo-4,5-dihydro-1,3-thiazol-2-yl}-3H-spiro[2-benzofuran-1,4′-piperidin]-3-one] | 8.0
14 | O=C1N=C(N2CCC3(CC2)OCc2ccccc23)SC1=C(c1cccnc1)c1cccnc1 [Example 119, 5-[di(pyridin-3-yl)methylidene]-2-(1′H,3H-spiro[2-benzofuran-1,4′-piperidin]-1′-yl)-1,3-thiazol-4(5H)-one] | 7.6
15 | C/C(=C1/SC(N2CCC3(CC2)OCc2ccccc23)=NC1=O)C1CCCC1 [Example 43, (5E/Z)-5-(1-cyclopentylethylidene)-2-(1′H,3H-spiro[2-benzofuran-1,4′-piperidin]-1′-yl)-1,3-thiazol-4(5H)-one] | 8.8
16 | C/C(=C1/SC(N2CCC3(CC2)OC(=O)c2ccccc23)=NC1=O)c1ccc(C)nc1 [Example 135, 1′-{(5Z)-5-[1-(6-methylpyridin-3-yl)ethylidene]-4-oxo-4,5-dihydro-1,3-thiazol-2-yl}-3H-spiro[2-benzofuran-1,4′-piperidin]-3-one] | 7.9

Second part, the molecule after the results:

Row | pKi hV1a | Structure (SMILES)
17 | 8.4 | O=C1N=C(N2CCC3(CC2)OCc2ccccc23)SC1=C(c1ccccc1)c1ccccc1 [Example 82, 5-(diphenylmethylidene)-2-(1′H,3H-spiro[2-benzofuran-1,4′-piperidin]-1′-yl)-1,3-thiazol-4(5H)-one]
18 | 9.3 | O=C1N=C(N2CCC3(CC2)OCc2ccccc23)S/C1=C(/CO)c1ccccc1 [Example 124, (5E)-5-(2-hydroxy-1-phenylethylidene)-2-(1′H,3H-spiro[2-benzofuran-1,4′-piperidin]-1′-yl)-1,3-thiazol-4(5H)-one]
19 | 9.2 | C/C(=C1/SC(N2CCC3(CC2)OCc2ccccc23)=NC1=O)c1ccccc1 [Example 151, (5Z)-5-(1-phenylethylidene)-2-(1′H,3H-spiro[2-benzofuran-1,4′-piperidin]-1′-yl)-1,3-thiazol-4(5H)-one]
20 | 9.1 | C/C(=C1/SC(N2CCC3(CC2)OCc2ccccc23)=NC1=O)c1cccn1C [Example 37, (5Z)-5-[1-(1-methyl-1H-pyrrol-2-yl)ethylidene]-2-(1′H,3H-spiro[2-benzofuran-1,4′-piperidin]-1′-yl)-1,3-thiazol-4(5H)-one]
21 | 8.5 | C/C(=C1/SC(N2CCC3(CC2)OCc2ccccc23)=NC1=O)c1ccccc1 [Example 16, (5E/Z)-5-(1-phenylethylidene)-2-(1′H,3H-spiro[2-benzofuran-1,4′-piperidin]-1′-yl)-1,3-thiazol-4(5H)-one]
22 | 9.2 | C/C(=C1/SC(N2CCC3(CC2)OCc2ccccc23)=NC1=O)c1ccc[nH]1 [Example 34, (5E/Z)-5-[1-(1H-pyrrol-2-yl)ethylidene]-2-(1′H,3H-spiro[2-benzofuran-1,4′-piperidin]-1′-yl)-1,3-thiazol-4(5H)-one]
23 | 8.0 | CC/C(=C1/SC(N2CCC3(CC2)OCc2ccccc23)=NC1=O)c1ccc(Cl)cc1 [Example 13, (5E/Z)-5-[1-(4-chlorophenyl)propylidene]-2-(1′H,3H-spiro[2-benzofuran-1,4′-piperidin]-1′-yl)-1,3-thiazol-4(5H)-one]
24 | 8.5 | O=C1N=C(N2CCC3(CC2)OCc2ccccc23)S/C1=C(/c1ccc(Cl)cc1)C(F)(F)F [Example 17, (5Z)-5-[1-(4-chlorophenyl)-2,2,2-trifluoroethylidene]-2-(1′H,3H-spiro[2-benzofuran-1,4′-piperidin]-1′-yl)-1,3-thiazol-4(5H)-one]
25 | 6.9 | O=C1N=C(N2CCC3(CC2)OCc2ccccc23)S/C1=C1/CCc2cc(Cl)ccc21 [Example 10, (5E/Z)-5-(5-chloro-2,3-dihydro-1H-inden-1-ylidene)-2-(1′H,3H-spiro[2-benzofuran-1,4′-piperidin]-1′-yl)-1,3-thiazol-4(5H)-one]
26 | 7.8 | CC(C)=C1SC(N2CCC3(CC2)OCc2ccccc23)=NC1=O [Example 30, 5-(propan-2-ylidene)-2-(1′H,3H-spiro[2-benzofuran-1,4′-piperidin]-1′-yl)-1,3-thiazol-4(5H)-one]

same assay, conditions: membranes of HEK293 cells transiently transfected with human V1a receptor, Ki by Cheng-Prussoff, read-out: pKi hV1a (converted)

Row | Ki | Structure (SMILES)
27 | 5.01 nM | NCC(=C1SC(N2CCC3(CC2)OCc2ccccc23)=NC1=O)c1ccccc1 (racemic) [Example 160, (5E/Z)-5-(2-amino-1-phenylethylidene)-2-(1′H,3H-spiro[2-benzofuran-1,4′-piperidin]-1′-yl)-1,3-thiazol-4(5H)-one trifluoroacetate]
